Measured values: patent US20030096379A1, “Method for producing tryptamine derivatives” (priority 2001, published 2003)

What was measured:
[1] = tested on: TrpBA and TDC1; experiment: Coupled enzyme synthesis monitored by HPLC; type: biochemical; conditions: L-serine, PLP, pH 8.5 phosphate buffer, 37° C.
Experimental: To a solution containing L-serine (25 μmol), pyridoxal phosphate (0.05 μmol) and TrpBA (0.02 to 1.5 units, depending on the substrate), TDC1 (0.2 mL 0.6 units) and KPi buffer (0.05 mmol, pH 7.5) in a volume of 0.8 mL were added […] of 5 mM indole derivative in 20% v/v ethanol/water. The mixture was incubated at 37° C. and aliquots were quenched and analyzed as described for Example 8. In cases where tryptamine and/or tryptophan standards were not available, peaks were collected for mass spectral analysis. Electrospray mass spectral analyses were performed.
Mixtures containing indole, L-serine, PLP and TDC1 were incubated in pH 8.5 phosphate buffer, analyzing aliquots by HPLC, as described in Example 12.
The procedure used in Example 24 was carried out by substituting indole with 2-methylindole, 4-hydroxymethylindole, 5-methoxy-, 5-hydroxymethyl-, 5-methoxycarbonyl, and 5,6-dimethoxyindole.

[2] = biological target: T1, TrpBA (Escherichia coli, UniProt P0A879); experiment: Relative rates of tryptophan derivative synthesis by HPLC, TrpBA; type: biochemical, E. coli; design: key: **: rate too slow to quantitate; conditions: initial rate estimated by HPLC, indole = 100%
T1 construct: made in house; host or cells: E. coli LMG194 (pBAD) or BL-21 (pET)
Experimental: (§1) Reaction mixtures were prepared as in Example 6 and were incubated at 37° C. Aliquots (100 μL) were removed and quenched by addition of to 300 μL of 0.5 M sodium citrate, pH 3.0 in 10% v/v acetonitrile/water in 2 ml microcentrifuge tubes. Following centrifugation for 10 min at 13,000×g, the supernatants were passed through 0.45μ membrane filters prior to HPLC analysis of 20 μL of filtrate.
(§2) TnA reactions were run with L-serine as the 3-carbon substrate.

[3] = biological target: T2, tryptophanase (TnA) (Escherichia coli, UniProt P0A853); type: biochemical, E. coli; design: key: +: a clear ninhydrin-positive spot at the Rf of standard tryptophan derivatives after 16-65 h; (+): a weak spot in the product region; −: no product observed; NR: experiment not run; conditions: indole derivative + L-serine + PLP, 37° C., 16-65 h, ninhydrin
T2 construct: made in house; host or cells: E. coli LMG194 (pBAD) or BL-21 (pET)

[4] = biological target: T3, E. coli DH5α tryptophan synthase (TrpBA) (Escherichia coli, UniProt P0A879); type: biochemical; design: key: +: a clear ninhydrin-positive spot at the Rf of standard tryptophan derivatives after 16-65 h; (+): a weak spot in the product region; −: no product observed; NR: experiment not run; conditions: indole derivative + L-serine + PLP, 37° C., 16-65 h, ninhydrin
T3 construct: made in house; host or cells: E. coli LMG194 (pBAD) or BL-21 (pET)

[5] = biological target: T4, TnA (Escherichia coli, UniProt P0A853); experiment: Relative rates of tryptophan derivative synthesis by HPLC, TnA; type: biochemical, E. coli; conditions: initial rate estimated by HPLC, indole = 100%, L-serine as the 3-carbon substrate
T4 construct: made in house; host or cells: E. coli LMG194 (pBAD) or BL-21 (pET)
Experimental: as §1, with “Aliquots” for “Reaction mixtures were prepared as in Example 6 and were incubated at 37° C. Aliquots”
as §2

[6] = biological target: T5, pkAAAD (Sus scrofa, UniProt P80041); experiment: pkAAAD-catalyzed decarboxylation rate ratio by HPLC; type: biochemical, pig; conditions: HPLC of acid-quenched aliquots, ratio to 1
T5 construct: Frozen tissue was partially thawed in lysis buffer, then it was extracted and partially purified; from tissue; host or cells: pig kidney
T5 sequence (P80041 1-486): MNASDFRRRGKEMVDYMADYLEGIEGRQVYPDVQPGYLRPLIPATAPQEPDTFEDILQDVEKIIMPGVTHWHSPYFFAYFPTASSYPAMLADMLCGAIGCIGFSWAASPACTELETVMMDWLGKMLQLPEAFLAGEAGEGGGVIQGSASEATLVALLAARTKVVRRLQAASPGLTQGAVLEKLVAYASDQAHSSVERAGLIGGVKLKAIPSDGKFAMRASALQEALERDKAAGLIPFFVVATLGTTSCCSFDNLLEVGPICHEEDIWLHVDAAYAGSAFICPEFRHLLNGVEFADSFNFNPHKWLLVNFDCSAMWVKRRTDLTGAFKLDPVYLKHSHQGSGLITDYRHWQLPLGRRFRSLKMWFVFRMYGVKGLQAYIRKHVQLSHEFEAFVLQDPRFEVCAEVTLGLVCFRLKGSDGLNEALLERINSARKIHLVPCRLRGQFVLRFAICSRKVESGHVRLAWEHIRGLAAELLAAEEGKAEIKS
Experimental: Tryptophan synthase activity was assayed by monitoring the increase in absorbance at 290 nm of a mixture containing serine, indole and PLP (Higgins, W., et al., Biochemistry, 1979, 18, 4827). TnA-catalyzed tryptophan synthesis was also measured by the 290 nm assay, while the tryptophan lyase reaction rate was measured by monitoring the reduction in NADH in reaction mixtures containing L-tryptophan and lactate dehydrogenase, indicating the amount of pyruvate released. Tryptophan decarboxylase was assayed colorimetrically by monitoring the sabsorbance at 580 nm produced by serotonin (AAADs) or tryptamine (TDCs) following treatment of reaction aliquots with Ehrlich's reagent (4-N,N-(dimethyl)aminobenzaldehyde in ethanolic HCl; Nakazawa, H.; Kumagi, H.; Yamada, H. Biochem Biophys. Res. Commun., 1974, 61, 75-82). Serotonin could be detected with approximately 5-fold higher sensitivity by this method as compared with tryptamine. The Ehrlich reagent assay using a microtiter plate format for simultaneous analysis of multiple enzyme samples may also be used. HPLC analysis was performed on acid-quenched reaction aliquots by using a base-deactivated C8 reversed-phase support (Shandon Hypersil BD8). […]

[7] = biological target: T5, pkAAAD; conditions: literature (Sourkes 1987), ratio :1; cited from earlier work

T3 sequence (P0A879 whole entry): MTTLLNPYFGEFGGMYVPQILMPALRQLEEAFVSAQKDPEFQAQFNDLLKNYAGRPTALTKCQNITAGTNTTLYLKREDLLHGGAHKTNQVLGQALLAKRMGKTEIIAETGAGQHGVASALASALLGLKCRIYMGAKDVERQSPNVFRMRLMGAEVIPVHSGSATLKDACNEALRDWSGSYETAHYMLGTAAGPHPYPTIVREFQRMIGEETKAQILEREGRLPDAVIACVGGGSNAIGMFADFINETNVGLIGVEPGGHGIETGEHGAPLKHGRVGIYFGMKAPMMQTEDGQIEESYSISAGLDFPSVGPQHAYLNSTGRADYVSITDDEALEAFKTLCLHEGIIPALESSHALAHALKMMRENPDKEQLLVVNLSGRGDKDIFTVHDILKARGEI
T3 sequence (P0A877 whole entry, further chain): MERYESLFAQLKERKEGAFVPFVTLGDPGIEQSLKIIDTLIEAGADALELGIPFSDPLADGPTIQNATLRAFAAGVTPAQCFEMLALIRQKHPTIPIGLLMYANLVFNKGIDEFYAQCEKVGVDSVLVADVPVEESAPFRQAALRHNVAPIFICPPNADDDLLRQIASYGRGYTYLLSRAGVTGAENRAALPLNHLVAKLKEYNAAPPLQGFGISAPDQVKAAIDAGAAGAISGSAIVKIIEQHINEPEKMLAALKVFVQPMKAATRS
T1 sequence (P0A879 whole entry): as the sequence (P0A879 whole entry) above
T1 sequence (P0A877 whole entry, further chain): as the sequence (P0A877 whole entry, further chain) above
T4 sequence (P0A853 whole entry): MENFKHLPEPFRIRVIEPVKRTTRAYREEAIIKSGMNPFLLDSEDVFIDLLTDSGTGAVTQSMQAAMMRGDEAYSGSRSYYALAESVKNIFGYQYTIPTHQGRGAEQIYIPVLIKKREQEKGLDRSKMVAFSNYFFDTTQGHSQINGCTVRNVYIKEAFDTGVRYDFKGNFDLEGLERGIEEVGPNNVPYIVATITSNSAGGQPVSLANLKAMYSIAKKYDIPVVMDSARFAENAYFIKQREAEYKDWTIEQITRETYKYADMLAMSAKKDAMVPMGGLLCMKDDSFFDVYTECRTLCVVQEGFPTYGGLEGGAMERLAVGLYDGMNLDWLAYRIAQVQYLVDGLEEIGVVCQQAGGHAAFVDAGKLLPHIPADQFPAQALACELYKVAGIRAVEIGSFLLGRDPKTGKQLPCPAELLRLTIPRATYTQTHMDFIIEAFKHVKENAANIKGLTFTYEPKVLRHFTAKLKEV
T2 sequence (P0A853 whole entry): as above

Structure (SMILES) | formation of tryptophan derivative and tryptamine (HPLC peaks) [1] | Relative rate (TrpBA) [2] | TnA (tryptophan product spot, TLC analysis) [3] | TrpBA (tryptophan product spot, TLC analysis) [4] | Relative Rate (TnA) [5] [%] | Relative rate (TrpBA) ([2]; L-serine) [%] | rate ratio of DOPA decarboxylation relative to that of L-5-hydroxytryptophan [6] | accepted ratio of DOPA to L-5-hydroxytryptophan decarboxylation [7]
COc1cc2cc[nH]c2cc1OC [5,6-dimethoxy, 5,6-dimethoxyindole] | a second peak representing formation of tryptamine | ** | (+) | − | 2.1 |  |  | 
OCc1ccc2[nH]ccc2c1 [5-hydroxymethyl-, indole-5-methanol] | a second peak representing formation of tryptamine |  | + | + | 1.2 | 0.03 |  | 
N[C@@H](Cc1ccc(O)c(O)c1)C(=O)O [DOPA] |  |  |  |  |  |  | 4.5 | approximately 5
